{"source": "ChEMBL document CHEMBL5390314", "about": "“Repurposing Azoles to Resolve Serotogenic Toxicity Associated with Linezolid to Combat Multidrug-Resistant Tuberculosis” (ACS Med Chem Lett, 2023)", "key": {"[1]": {"system": "Mycobacterium tuberculosis", "test": "Anti-mycobacterial activity against Mycobacterium tuberculosis H37Rv assessed as bacterial growth inhibition incubated for 7 days by microplate Alamar blue assay", "format": "functional", "conditions": "168 h, time 7 day"}, "[2]": {"system": "Mycobacterium tuberculosis", "test": "Anti-mycobacterial activity against Mycobacterium tuberculosis clinical isolate assessed as bacterial growth inhibition incubated for 7 days by microplate Alamar blue assay", "format": "functional", "conditions": "168 h, time 7 day"}, "[3]": {"biological_target": "T1, Amine oxidase [flavin-containing] A (Homo sapiens, UniProt P21397)", "T1 sequence (P21397 whole entry)": "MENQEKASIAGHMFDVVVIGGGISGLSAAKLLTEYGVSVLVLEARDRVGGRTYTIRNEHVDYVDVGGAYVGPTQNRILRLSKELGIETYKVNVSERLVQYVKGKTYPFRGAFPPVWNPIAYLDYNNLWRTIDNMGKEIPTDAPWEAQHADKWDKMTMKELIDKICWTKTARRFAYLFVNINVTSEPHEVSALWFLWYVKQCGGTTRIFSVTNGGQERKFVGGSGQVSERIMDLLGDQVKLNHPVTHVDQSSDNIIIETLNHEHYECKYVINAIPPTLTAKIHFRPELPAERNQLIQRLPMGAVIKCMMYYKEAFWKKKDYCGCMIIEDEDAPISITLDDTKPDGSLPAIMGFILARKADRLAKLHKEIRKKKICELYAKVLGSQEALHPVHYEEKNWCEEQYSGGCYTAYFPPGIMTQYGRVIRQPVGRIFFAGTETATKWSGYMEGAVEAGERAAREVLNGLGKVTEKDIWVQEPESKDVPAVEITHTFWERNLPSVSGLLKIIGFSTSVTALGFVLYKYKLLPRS", "test": "Inhibition of recombinant MAO-A (unknown origin) using kynuramine as a substrate by MAO assay", "format": "toxicity"}, "[4]": {"biological_target": "T2, Amine oxidase [flavin-containing] B (Homo sapiens, UniProt P27338)", "T2 sequence (P27338 whole entry)": "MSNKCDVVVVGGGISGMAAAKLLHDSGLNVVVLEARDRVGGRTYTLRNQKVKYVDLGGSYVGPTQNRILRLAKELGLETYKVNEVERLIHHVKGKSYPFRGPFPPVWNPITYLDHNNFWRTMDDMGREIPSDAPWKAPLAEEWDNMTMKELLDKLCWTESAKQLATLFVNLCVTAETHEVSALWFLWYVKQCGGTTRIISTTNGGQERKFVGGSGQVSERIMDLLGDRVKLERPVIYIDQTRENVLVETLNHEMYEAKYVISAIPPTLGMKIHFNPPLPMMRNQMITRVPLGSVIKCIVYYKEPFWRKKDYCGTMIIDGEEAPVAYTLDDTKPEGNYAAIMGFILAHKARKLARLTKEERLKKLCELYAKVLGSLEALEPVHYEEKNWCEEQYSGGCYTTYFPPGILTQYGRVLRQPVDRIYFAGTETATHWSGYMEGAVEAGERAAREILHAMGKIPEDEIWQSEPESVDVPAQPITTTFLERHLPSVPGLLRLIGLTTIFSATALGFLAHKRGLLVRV", "test": "Inhibition of recombinant MAO-B (unknown origin) using benzylamine as a substrate by MAO assay", "format": "toxicity"}}, "data": [{"smiles": "Clc1ccccc1C(c1ccccc1)(c1ccccc1)n1ccnc1", "note": "[CLOTRIMAZOLE]", "values": [{"measurement": "MIC", "setting": "[1]", "value": 2.26, "unit": "µM"}, {"measurement": "MIC50", "setting": "[2]", "value": 0.87, "unit": "µM"}, {"measurement": "MIC90", "setting": "[2]", "value": 1.56, "unit": "µM"}, {"measurement": "IC50", "setting": "[3]", "value": 25.4, "unit": "µM"}, {"measurement": "IC50", "setting": "[4]", "value": 31.2, "unit": "µM"}]}, {"smiles": "NNC(=O)c1ccncc1", "note": "[ISONIAZID]", "values": [{"measurement": "MIC50", "setting": "[2]", "value": "< 0.2", "unit": "µM"}, {"measurement": "MIC90", "setting": "[2]", "value": "< 0.2", "unit": "µM"}]}, {"smiles": "CCC(C)n1ncn(-c2ccc(N3CCN(c4ccc(OCC5COC(Cn6cncn6)(c6ccc(Cl)cc6Cl)O5)cc4)CC3)cc2)c1=O", "note": "(stereo unspecified) [ITRACONAZOLE]", "values": [{"measurement": "MIC", "setting": "[1]", "value": "> 35", "unit": "µM"}]}, {"smiles": "CC(=O)NC[C@H]1CN(c2ccc(N3CCOCC3)c(F)c2)C(=O)O1", "note": "[LINEZOLID]", "values": [{"measurement": "MIC", "setting": "[1]", "value": 2.31, "unit": "µM"}, {"measurement": "MIC50", "setting": "[2]", "value": 0.34, "unit": "µM"}, {"measurement": "MIC90", "setting": "[2]", "value": 0.78, "unit": "µM"}, {"measurement": "IC50", "setting": "[3]", "value": 6.52, "unit": "µM"}, {"measurement": "IC50", "setting": "[4]", "value": 0.619, "unit": "µM"}]}, {"smiles": "Clc1ccc(COC(Cn2ccnc2)c2ccc(Cl)cc2Cl)c(Cl)c1", "note": "(stereo unspecified) [MICONAZOLE]", "values": [{"measurement": "MIC", "setting": "[1]", "value": 3.74, "unit": "µM"}, {"measurement": "MIC50", "setting": "[2]", "value": 1, "unit": "µM"}, {"measurement": "MIC90", "setting": "[2]", "value": 1.56, "unit": "µM"}, {"measurement": "IC50", "setting": "[3]", "value": 37.8, "unit": "µM"}, {"measurement": "IC50", "setting": "[4]", "value": 13.2, "unit": "µM"}]}, {"smiles": "CC[C@@H]([C@H](C)O)n1ncn(-c2ccc(N3CCN(c4ccc(OC[C@@H]5CO[C@@](Cn6cncn6)(c6ccc(F)cc6F)C5)cc4)CC3)cc2)c1=O", "note": "[POSACONAZOLE]", "values": [{"measurement": "MIC", "setting": "[1]", "value": "> 35", "unit": "µM"}]}, {"smiles": "CO[C@H]1/C=C/O[C@@]2(C)Oc3c(C)c(O)c4c(O)c(c(/C=N/N5CCN(C)CC5)c(O)c4c3C2=O)NC(=O)/C(C)=C\\C=C\\[C@H](C)[C@H](O)[C@@H](C)[C@@H](O)[C@@H](C)[C@H](OC(C)=O)[C@@H]1C", "note": "[RIFAMPIN]", "values": [{"measurement": "MIC50", "setting": "[2]", "value": "< 0.04", "unit": "µM"}, {"measurement": "MIC90", "setting": "[2]", "value": "< 0.04", "unit": "µM"}]}]}
